Patent US11607446B2, “Personalized immunotherapy against several neuronal and brain tumors” (Immatics Biotechnologies GmbH, priority 2013, dated 2023)

Legend:
CD8+ T cells [1] = assay: In vitro immunogenicity of HLA-A*24 class I peptides: in vitro T-cell priming with aAPCs loaded with peptide/MHC complexes and anti-CD28 antibody, pMHC multimer readout; assay type: cell-based, human; conditions: for Wells: share of positive wells in the in vitro immunogenicity experiments
Procedure: In order to obtain information regarding the immunogenicity of the TUMAPs of the present invention, we performed investigations using an in vitro T-cell priming assay based on repeated stimulations of CD8+ T cells with artificial antigen presenting cells (aAPCs) loaded with peptide/MHC complexes and anti-CD28 antibody.
Isolated CD8+ lymphocytes or PBMCs were incubated until use in T-cell medium (TCM) consisting of RPMI-Glutamax (Invitrogen, Karlsruhe, Germany) supplemented with 10% heat inactivated human AB serum (PAN-Biotech, Aidenbach, Germany), 100 U/ml Penicillin/100 μg/ml Streptomycin (Cambrex, Cologne, Germany), 1 mM sodium pyruvate (CC Pro, Oberdorla, Germany), 20 μg/ml Gentamycin (Cambrex). 2.5 ng/ml IL-7 (PromoCell, Heidelberg, Germany) and 10 U/ml IL-2 (Novartis Pharma, Nurnberg, Germany) were also added to the TCM at this step. Generation of pMHC/anti-CD28 coated beads, T-cell stimulations and readout was performed in a highly defined in vitro system using four different pMHC molecules per stimulation condition and 8 different pMHC molecules per readout condition. All pMHC complexes used for aAPC loading and cytometric readout were derived from UV-induced MHC ligand exchange with minor modifications. In order to determine the amount of pMHC monomer obtained by exchange we performed streptavidin-based sandwich ELISAs according to (Rodenko et al., 2006). The purified co-stimulatory mouse IgG2a anti human CD28 Ab 9.3 (Jung et al., 1987) was chemically biotinylated using Sulfo-N-hydroxysuccinimidobiotin as recommended by the manufacturer (Perbio, Bonn, Germany). Beads used were 5.6 μm diameter streptavidin coated polystyrene particles (Bangs Laboratories, Illinois, USA).
800.000 beads/200 μl were coated in 96-well plates in the presence of 4×12.5 ng different biotin-pMHC, washed and 600 ng biotin anti-CD28 were added subsequently in a volume of 200 μl. Stimulations were initiated in 96-well plates by co-incubating 1×10^6 CD8+ T cells with 2×10^5 washed coated beads in 200 μl TCM supplemented with 5 ng/ml IL-12 (PromoCell) for 3-4 days at 37° C. Half of the medium was then exchanged by fresh TCM supplemented with 80 U/ml IL-2 and incubating was continued for 3-4 days at 37° C. This stimulation cycle was performed for a total of three times, with 12 individual wells per condition For the pMHC multimer readout using 8 different pMHC molecules per condition, a two-dimensional combinatorial coding approach was used as previously described (Andersen et al., 2012) with minor modifications encompassing coupling to 5 different fluorochromes. Finally, multimeric analyses were performed by staining the cells with Live/dead near IR dye (Invitrogen, Karlsruhe, Germany), CD8-FITC antibody clone SK1 (BD, Heidelberg, Germany) and fluorescent pMHC multimers. For analysis, a BD LSRII SORP cytometer equipped with appropriate lasers and filters was used. Peptide specific cells were calculated as percentage of total CD8+ cells. Evaluation of multimeric analysis was done using the FlowJo software (Tree Star, Oregon, USA). In vitro priming of specific multimer+ CD8+ lymphocytes was detected by comparison to irrelevant control stimulations.
Exemplary flow cytometry results after TUMAP-specific multimer staining for two peptides of the invention are shown in FIG. 4 together with corresponding negative controls.

CD8+ T cells [2] = assay: In vitro immunogenicity of HLA-A*02 class I peptides: in vitro T-cell priming with aAPCs loaded with peptide/MHC complexes and anti-CD28 antibody, pMHC multimer readout; assay type: cell-based, human; conditions: HLA-A*02 peptides; for Donors (percentage in brackets) / Donors: healthy donors; for Donors: specific multimer+ CD8+ T-cell line after in vitro stimulation; for Wells: in vitro stimulated wells of healthy donors' CD8+ T cells, specific multimer+ readout
[3] = share of positive donors in the in vitro immunogenicity experiments, given as a class symbol

Row | Substance | Donors (CD8+ T cells [1]; [3]) | Wells (CD8+ T cells [1]; given as a class symbol) | further results
1 | AFSPDSHYLLF (listed as Homo sapiens) [ITGA7-001] | ++ (20%-49 % = ++) | + (<20% = +) | 
2 | AYLIDIKTI (listed as Homo sapiens) [IFT17-001] | +++ (50%-70% = +++) | + (<20% = +) | 
3 | AYPRLSLSF (listed as Homo sapiens) [GAB-001] | ++ (20%-49 % = ++) | + (<20% = +) | 
4 | AYSDGHFLF (listed as Homo sapiens) [TENM4-001] | ++ (20%-49 % = ++) | + (<20% = +) | 
5 | AYVLRLETL (listed as Homo sapiens) [PNMA2-001] | ++ (20%-49 % = ++) | + (<20% = +) | 
6 | CRB 1-001 (SYFENVHGF; listed as Homo sapiens) | ++ (20%-49 % = ++) | + (<20% = +) | 
7 | EYIRALQQL (listed as Homo sapiens) [ASCL1-001] | ++ (20%-49 % = ++) | + (<20% = +) | 
8 | EYMKALGVGF (listed as Homo sapiens) [FABP7-002] | ++ (20%-49 % = ++) | + (<20% = +) | 
9 | FYGPQVNNI (listed as Homo sapiens) [WASL-001] | ++++ (>70% = ++++) | + (<20% = +) | 
10 | HYKPTPLYF (listed as Homo sapiens) [SMC4-001] | ++ (20%-49 % = ++) | + (<20% = +) | 
11 | IFTYIHLQL (listed as Homo sapiens) [LOC72839-001] | +++ (50%-70% = +++) | + (<20% = +) | 
12 | IYGGHHAGF (listed as Homo sapiens) [OLIG2-001] | ++ (20%-49 % = ++) | + (<20% = +) | 
13 | KFAEEFYSF (listed as Homo sapiens) [CDCA7L-001] | ++ (20%-49 % = ++) | + (<20% = +) | 
14 | KYFDKVVTL (listed as Homo sapiens) [KIF7-001] | ++ (20%-49 % = ++) | + (<20% = +) | 
15 | KYFGGVLEYF (listed as Homo sapiens) [RHOBTB3-001] | ++ (20%-49 % = ++) | + (<20% = +) | 
16 | KYFSFPGEL (listed as Homo sapiens) [SLC-002] | ++ (20%-49 % = ++) | + (<20% = +) | 
17 | KYNEFSVSL (listed as Homo sapiens) [HEATR1-001] | +++ (50%-70% = +++) | + (<20% = +) | 
18 | KYNLINEYF (listed as Homo sapiens) [HS2-001] | ++ (20%-49 % = ++) | + (<20% = +) | 
19 | LYIYPQSLNF (listed as Homo sapiens) [DOCK7-002] | +++ (50%-70% = +++) | + (<20% = +) | 
20 | MYPYIYHVL (listed as Homo sapiens) [FAM120C-001] | ++++ (>70% = ++++) | ++ (20%-49 % = ++) | Donors (CD8+ T cells [1]): 100%
21 | NROB1-001 (AYLKGTVLF; listed as Homo sapiens) | ++ (20%-49 % = ++) | + (<20% = +) | 
22 | NYIDNVGNLHF (listed as Homo sapiens) [LNX1-001] | ++ (20%-49 % = ++) | + (<20% = +) | 

Row | Substance | Donors (CD8+ T cells [1]; [3]) | Wells (CD8+ T cells [1]; given as a class symbol) | further results
23 | NYKDLNGNVF (listed as Homo sapiens) [SSR1-001] | ++ (20%-49 % = ++) | + (<20% = +) | 
24 | NYNDRYDEI (listed as Homo sapiens) [RPL-001] | ++ (20%-49 % = ++) | + (<20% = +) | 
25 | NYQDTIGRL (listed as Homo sapiens) [VIM-002] | ++ (20%-49 % = ++) | + (<20% = +) | 
26 | NYTSLLVTW (listed as Homo sapiens) [PTP-018] | ++++ (>70% = ++++) | + (<20% = +) | 
27 | NYTSLLVTW^+4 (listed as Homo sapiens) [PTP-019] | ++ (20%-49 % = ++) | + (<20% = +) | 
28 | PFAKPLPTF (listed as Homo sapiens) [EP4-001] | ++ (20%-49 % = ++) | + (<20% = +) | 
29 | PYLDKFFAL (listed as Homo sapiens) [DOCK7-003] | ++ (20%-49 % = ++) | + (<20% = +) | 
30 | PYNHQHEYF (listed as Homo sapiens) [FADS2-002] | ++++ (>70% = ++++) | + (<20% = +) | 
31 | QWAPILANF (listed as Homo sapiens) [NKA-001] | ++ (20%-49 % = ++) | + (<20% = +) | 
32 | QYQIIMTMI (listed as Homo sapiens) [FADS2-003] | +++ (50%-70% = +++) | + (<20% = +) | 
33 | QYVFIHDTL (listed as Homo sapiens) [PTP-015] | ++ (20%-49 % = ++) | + (<20% = +) | 
34 | SLWGGDVVL (listed as Homo sapiens) [VPS13B-001] |  |  | Donors (percentage in brackets) (CD8+ T cells [2]): 100%; Donors (CD8+ T cells [2]): ++++ (>70% = ++++); Wells (CD8+ T cells [2]): ++ (20%-49 % = ++)
35 | SLYKGLLSV (listed as Homo sapiens) [RAD54B-001] |  |  | Donors (percentage in brackets) (CD8+ T cells [2]): 100%; Donors (CD8+ T cells [2]): ++++ (>70% = ++++); Wells (CD8+ T cells [2]): ++ (20%-49 % = ++)
36 | TLLAAEFLKQV (listed as Homo sapiens) [CCT-001] |  |  | Donors (CD8+ T cells [2]): +++ (50%-70% = +++); Wells (CD8+ T cells [2]): + (<20% = +)
37 | TLTNIIHNL (listed as Homo sapiens) [ORMDL1-002] |  |  | Donors (CD8+ T cells [2]): +++ (50%-70% = +++); Wells (CD8+ T cells [2]): + (<20% = +)
38 | TLWYRAPEV (listed as Homo sapiens) [CDK4-001] |  |  | Donors (CD8+ T cells [2]): ++++ (>70% = ++++); Wells (CD8+ T cells [2]): ++ (20%-49 % = ++)
39 | TMLARLASA (listed as Homo sapiens) [CSP-001] |  |  | Donors (CD8+ T cells [2]): +++ (50%-70% = +++); Wells (CD8+ T cells [2]): + (<20% = +)
40 | TMMSRPPVL (listed as Homo sapiens) [WLS-002] |  |  | Donors (CD8+ T cells [2]): +++ (50%-70% = +++); Wells (CD8+ T cells [2]): + (<20% = +)
41 | VLCGPPPAV (listed as Homo sapiens) [NC AN-001] |  |  | Donors (percentage in brackets) (CD8+ T cells [2]): 100%; Donors (CD8+ T cells [2]): ++++ (>70% = ++++); Wells (CD8+ T cells [2]): + (<20% = +)
42 | VLIQDVPTL (listed as Homo sapiens) [GRI-002] |  |  | Donors (CD8+ T cells [2]): ++ (20%-49 % = ++); Wells (CD8+ T cells [2]): + (<20% = +)
43 | YLPTFFLTV (listed as Homo sapiens) [ELOVL2-001] |  |  | Donors (CD8+ T cells [2]): ++++ (>70% = ++++); Wells (CD8+ T cells [2]): + (<20% = +)
44 | YQDPHSTAV (listed as Homo sapiens) [EGFR-008] |  |  | Donors (CD8+ T cells [2]): ++ (20%-49 % = ++); Wells (CD8+ T cells [2]): + (<20% = +)
